Data as given in publication PMC3510655 (Chemical science (Royal Society of Chemistry : 2010), 2013).

Target: T1, quinone reductase 2 (QR2) (Homo sapiens, UniProt P16083)
T1 sequence (P16083 1-231): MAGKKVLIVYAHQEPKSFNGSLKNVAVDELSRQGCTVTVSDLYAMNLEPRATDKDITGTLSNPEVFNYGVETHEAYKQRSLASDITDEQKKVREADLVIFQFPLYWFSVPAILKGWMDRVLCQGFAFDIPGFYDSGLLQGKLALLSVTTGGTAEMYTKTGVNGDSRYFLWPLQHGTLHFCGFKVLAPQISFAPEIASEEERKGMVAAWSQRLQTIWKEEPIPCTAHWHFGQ
Assay: QR2 inhibition assay using human recombinant protein
Type: biochemical
Settings: authors' assay system

IC50 against QR2	Substance
irreproducible results	Ammosamide H [compound 10]
nearly equipotent to 4	Ammosamide E [compound 1]
